From BindingDB's records for PubMed 2530338 (Medical University of South Carolina, 1989)

Target: T1, Thromboxane A2 receptor (Homo sapiens, UniProt P21731)
T1 sequence (P21731 whole entry): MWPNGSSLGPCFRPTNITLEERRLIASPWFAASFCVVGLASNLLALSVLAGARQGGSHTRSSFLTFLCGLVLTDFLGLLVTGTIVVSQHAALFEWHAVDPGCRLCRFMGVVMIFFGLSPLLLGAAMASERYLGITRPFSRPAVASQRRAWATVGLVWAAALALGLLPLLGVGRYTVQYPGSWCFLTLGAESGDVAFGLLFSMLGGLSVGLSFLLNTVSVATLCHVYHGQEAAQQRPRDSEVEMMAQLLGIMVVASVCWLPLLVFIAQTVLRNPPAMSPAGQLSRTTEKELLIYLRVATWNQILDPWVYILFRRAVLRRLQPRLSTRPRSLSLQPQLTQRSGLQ

Ki	Compound
17 nM	CCCCC[C@H](O)/C=C/C1C[C@H]2C[C@H](S2)[C@@H]1C/C=C\CCCC(=O)O (some centres undefined) [STA2]
424 nM	O=C(O)C[C@@H]1CCCc2c1n(Cc1ccc(Cl)cc1)c1ccc(F)cc21 [CAS_113243-00-8]
62 nM	CCCCC[C@H](O)/C=C/C1[C@@H](C/C=C\CCCC(=O)O)[C@H]2CO[C@@H]1C2 (some centres undefined) [U46619]
41 nM	CCCCC[C@H](O)CC[C@H]1c2cc([nH]n2)[C@@H]1CC=CCCCC(=O)O [9,11-AzoPGH2]
